The assay deals with T1, IKZF3-GFP (Homo sapiens, UniProt Q9UKT9).
T1 construct: gateway cloning of IKZF3 from a pENTR221-IKZF3(STOP-Leu) construct into the previously described pLenti6-DEST-GFP-Ires-RFP vector; expressed in transfected cells; host or cells: HEK293A cells (Invitrogen R70507), lentiviral transduction with pLenti6-IKZF3-GFP-Ires-RFP, blasticidin-selected
In words: IKZF3-GFP protein abundance flow cytometry assay in HEK293A cells. The assay is classed as cell-based. The settings on record: 24 h, Table 1; for IKZF3 deg Amax %: % protein remaining at maximum degradation. The method, then: Compounds of the invention were tested in the following cellular assays. […] TMD8 cells are BTK dependent and OCI-LY3 cells are BTK independent.
BTK-GFP and IKZF3-GFP Protein Abundance Flow Cytometry Assay in HEK293A Cells:
Degradation of BTK or IKZF3 was measured in HEK293A cells (Invitrogen R70507) expressing either BTK-GFP and RFP or IKZF3-GFP and RFP from a stably integrated bicistronic BTK-GFP-iresRFP or IKZF3-GFP-iresRFP construct, respectively. Reduction of the GFP signal measured by flow cytometry served as readout for BTK or IKZF3 degradation after degrader treatment.
Stable HEK293A-BTK-GFP-iresRFP cells were maintained in complete growth medium (DMEM high Glucose+10% FCS+1% L-Glutamine+1% NEAA+1% NaPyr.) with passaging performed twice per week. On Day 0, HEK293A-BTK-GFP-iresRFP or HEK293A-IKZF3-GFP-iresRFP and HEK293A-iresRFP cells were seeded at 10,000 cells/well in a 96-well microtiter plate in 260 μl complete medium. On Day 1, cells were treated in duplicate with 10-point 1:3 dilution series of compound using the HP D300 Digital Dispenser (Tecan). DMSO concentrations were normalized across the plate to 0.1%. On Day 2, after 24 h of incubation at 37° C., treatment media was discarded, cells rinsed with 100 ul/well PBS and then detached using 40 ul trypsin/well for 5 min. Trypsin was neutralized with 100 ul/well PBS+20% FCS). Flow cytometry was performed on the samples using the BD FACS CANTO II (Becton Dickinson). Cell identification was then performed using forward (FSC) vs. side scatter (SSC) plots. Single cell discrimination is performed using SSC-Width (SSC-W) vs. SSC-Height (SSC-H) plots. Median GFP values for 5,000 single cells are used to determine BTK levels. Median GFP values from HEK293A-iresRFP are used as a background signal and thus defining 0% BTK signal. Median GFP values from DMSO treated HEK293A-BTK-GFP-iresRFP or HEK293A-IKZF3-GFP-iresRFP are used to define 100% BTK signal for subsequent DC50 curves (concentration at 50% BTK degradation). GFP and RFP are read in the channels called FITC and PE, respectively.
Concentration response curves plotting relative reduction of the GFP signal (measured by flow cytometry) versus 10 compound concentrations (starting concentration 10 μM, 3 fold dilution steps) of the compounds allowed generation of DC50 values.
Data is shown in Table 2, in which, DC50 refers to the concentration at which 50% maximal degradation was observed; deg Amax is the extent of degradation and the value refers to the % protein remaining at the concentration at which maximum degradation is seen.

Bounds are passed on as bounds.

T1 sequence (Q96SW2 whole entry partner): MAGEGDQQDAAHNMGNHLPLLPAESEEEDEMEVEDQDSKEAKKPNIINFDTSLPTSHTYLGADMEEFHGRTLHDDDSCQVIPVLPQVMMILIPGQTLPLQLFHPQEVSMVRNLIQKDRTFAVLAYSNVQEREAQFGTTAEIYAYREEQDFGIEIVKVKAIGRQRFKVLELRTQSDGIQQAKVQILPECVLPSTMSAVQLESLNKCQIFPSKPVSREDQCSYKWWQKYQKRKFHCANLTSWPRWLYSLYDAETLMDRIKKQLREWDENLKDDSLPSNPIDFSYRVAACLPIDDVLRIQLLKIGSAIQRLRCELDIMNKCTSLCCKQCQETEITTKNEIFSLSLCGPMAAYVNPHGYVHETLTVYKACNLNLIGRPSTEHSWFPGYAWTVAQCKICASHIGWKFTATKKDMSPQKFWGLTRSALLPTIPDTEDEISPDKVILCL
T1 sequence (Q16531 whole entry partner): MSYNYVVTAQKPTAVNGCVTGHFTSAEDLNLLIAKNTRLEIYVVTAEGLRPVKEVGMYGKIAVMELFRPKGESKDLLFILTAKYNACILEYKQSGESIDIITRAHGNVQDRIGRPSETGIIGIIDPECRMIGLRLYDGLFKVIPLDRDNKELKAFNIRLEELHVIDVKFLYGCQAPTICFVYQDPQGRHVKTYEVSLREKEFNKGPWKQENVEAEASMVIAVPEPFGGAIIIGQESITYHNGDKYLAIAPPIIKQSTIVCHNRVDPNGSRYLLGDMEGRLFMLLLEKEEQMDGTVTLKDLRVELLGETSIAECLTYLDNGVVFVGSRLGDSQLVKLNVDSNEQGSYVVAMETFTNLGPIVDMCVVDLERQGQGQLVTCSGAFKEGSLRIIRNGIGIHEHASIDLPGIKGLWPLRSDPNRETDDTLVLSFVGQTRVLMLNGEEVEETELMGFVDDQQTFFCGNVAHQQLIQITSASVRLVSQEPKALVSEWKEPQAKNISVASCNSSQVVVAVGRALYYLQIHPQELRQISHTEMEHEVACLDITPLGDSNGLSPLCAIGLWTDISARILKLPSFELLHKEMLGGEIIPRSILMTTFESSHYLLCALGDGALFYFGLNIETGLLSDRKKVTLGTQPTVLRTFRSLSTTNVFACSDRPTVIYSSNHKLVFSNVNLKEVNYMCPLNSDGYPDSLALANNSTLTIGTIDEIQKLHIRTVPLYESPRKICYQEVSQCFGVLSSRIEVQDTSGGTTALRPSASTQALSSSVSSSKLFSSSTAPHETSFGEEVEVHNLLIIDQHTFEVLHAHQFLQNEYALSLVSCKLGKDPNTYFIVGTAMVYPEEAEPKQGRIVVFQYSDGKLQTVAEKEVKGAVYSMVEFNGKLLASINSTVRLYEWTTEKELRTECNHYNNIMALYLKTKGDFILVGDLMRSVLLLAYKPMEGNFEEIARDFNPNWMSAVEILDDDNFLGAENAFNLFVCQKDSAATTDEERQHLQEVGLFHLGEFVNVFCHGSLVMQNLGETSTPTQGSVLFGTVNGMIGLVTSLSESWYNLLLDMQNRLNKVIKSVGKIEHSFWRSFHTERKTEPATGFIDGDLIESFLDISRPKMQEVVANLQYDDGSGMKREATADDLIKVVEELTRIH
T1 sequence (Q9UKT9 whole entry): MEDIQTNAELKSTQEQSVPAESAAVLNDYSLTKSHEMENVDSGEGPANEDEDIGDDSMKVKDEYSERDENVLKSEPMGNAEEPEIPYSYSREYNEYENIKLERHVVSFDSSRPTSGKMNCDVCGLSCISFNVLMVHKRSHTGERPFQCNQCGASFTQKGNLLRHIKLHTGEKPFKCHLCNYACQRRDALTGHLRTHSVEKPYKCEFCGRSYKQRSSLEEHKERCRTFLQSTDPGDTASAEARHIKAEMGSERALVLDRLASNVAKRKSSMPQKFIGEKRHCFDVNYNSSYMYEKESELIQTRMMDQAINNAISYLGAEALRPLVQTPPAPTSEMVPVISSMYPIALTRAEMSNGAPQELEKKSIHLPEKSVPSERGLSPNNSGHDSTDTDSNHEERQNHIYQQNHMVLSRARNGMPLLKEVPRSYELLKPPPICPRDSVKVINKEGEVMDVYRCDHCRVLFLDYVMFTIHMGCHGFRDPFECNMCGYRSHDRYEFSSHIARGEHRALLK

On to `COc1ccc(C(=O)N2CCC3(CCN(Cc4ccc(-c5cc6c(-c7cc(F)cc(NC(=O)N8C[C@@H](CC(C)C)[C@H](O)C8)c7C)ncnc6[nH]5)cc4)CC3)CC2)cc1N1CCC(=O)NC1=O` (racemic) [Compound 5, trans-rac-N-(3-(6-(4-((9-(3-(2,4-Dioxotetrahydropyrimidin-1(2H)-yl)-4-methoxybenzoyl)-3,9-diazaspiro[5.5]undecan-3-yl)methyl)phenyl)-7H-pyrrolo[2,3-d]pyrimidin-4-yl)-5-fluoro-2-methylphenyl)-3-hydroxy-4-isobutylpyrrolidine-1-carboxamide], for which the “IKZF3 deg Amax %” value is on record as 103.7% and the DC50 was greater than 3.3 µM.

On to `COc1ccc(C(=O)N2CCC3(CCN(Cc4ccc(-c5cc6c(-c7cc(F)cc(NC(=O)N8C[C@@H](CC(C)C)[C@H](O)C8)c7C)ncnc6[nH]5)cc4)CC3)CC2)cc1N1CCC(=O)NC1=O` [Compound 1, (3S,4R)—N-(3-(6-(4-((9-(3-(2,4-Dioxotetrahydropyrimidin-1(2H)-yl)-4-methoxybenzoyl)-3,9-diazaspiro[5.5]undecan-3-yl)methyl)phenyl)-7H-pyrrolo[2,3-d]pyrimidin-4-yl)-5-fluoro-2-methylphenyl)-3-hydroxy-4-isobutylpyrrolidine-1-carboxamide], for which the “IKZF3 deg Amax %” value is on record as 102.7% and the DC50 was greater than 1.1 µM.

With `COc1ccc(C(=O)N2CCC(OCCN3CCN(Cc4ccc(-c5cc6c(-c7cc(F)cc(NC(=O)N8C[C@H](CC(C)C)[C@@H](O)C8)c7C)ncnc6[nH]5)cc4)CC3)CC2)cc1N1CCC(=O)NC1=O` [Compound 2, (3R,4S)—N-(3-(6-(4-((4-(2-((1-(3-(2,4-Dioxotetrahydropyrimidin-1 (2H)-yl)-4-methoxybenzoyl)piperidin-4-yl)oxy)ethyl)piperazin-1-yl)methyl)phenyl)-7H-pyrrolo[2,3-d]pyrimidin-4-yl)-5-fluoro-2-methylphenyl)-3-hydroxy-4-isobutylpyrrolidine-1-carboxamide], the “IKZF3 deg Amax %” value is given as 101.8% and the DC50 was greater than 3.3 µM.

Take `COc1ccc(C(=O)N2CCC3(CCN(Cc4ccc(-c5cc6c(-c7cc(F)cc(NC(=O)N8C[C@H](CC(C)C)[C@@H](O)C8)c7C)ncnc6[nH]5)cc4)CC3)CC2)cc1N1CCC(=O)NC1=O` [Compound 6, (3R,4S)—N-(3-(6-(4-((9-(3-(2,4-Dioxotetrahydropyrimidin-1(2H)-yl)-4-methoxybenzoyl)-3,9-diazaspiro[5.5]undecan-3-yl)methyl)phenyl)-7H-pyrrolo[2,3-d]pyrimidin-4-yl)-5-fluoro-2-methylphenyl)-3-hydroxy-4-isobutylpyrrolidine-1-carboxamide]: the “IKZF3 deg Amax %” value stood at 93.5% and the DC50 was greater than 3.3 µM.

As to `COc1ccc(C(=O)N2CCC(OC3CCN(Cc4ccc(-c5cc6c(-c7cc(F)cc(NC(=O)N8C[C@H](CC(C)C)[C@@H](O)C8)c7C)ncnc6[nH]5)cc4)CC3)CC2)cc1N1CCC(=O)NC1=O` [Compound 8, (3R,4S)—N-(3-(6-(4-((4-((1-(3-(2,4-Dioxotetrahydropyrimidin-1(2H)-yl)-4-methoxybenzoyl)piperidin-4-yl)oxy)piperidin-1-yl)methyl)phenyl)-7H-pyrrolo[2,3-d]pyrimidin-4-yl)-5-fluoro-2-methylphenyl)-3-hydroxy-4-isobutylpyrrolidine-1-carboxamide], the “IKZF3 deg Amax %” value was found to be 107.4% and the DC50 was greater than 1 µM.

As to `COc1ccc(C(=O)N2CCC(CN3CCC(Oc4ccc(-c5cc6c(-c7cc(F)cc(NC(=O)N8C[C@H](CC(C)C)[C@@H](O)C8)c7C)ncnc6[nH]5)cc4)CC3)CC2)cc1N1CCC(=O)NC1=O` [Compound 11, (3R,4S)—N-(3-(6-(4-((1-((1-(3-(2,4-Dioxotetrahydropyrimidin-1 (2H)-yl)-4-methoxybenzoyl)piperidin-4-yl)methyl)piperidin-4-yl)oxy)phenyl)-7H-pyrrolo[2,3-d]pyrimidin-4-yl)-5-fluoro-2-methylphenyl)-3-hydroxy-4-isobutylpyrrolidine-1-carboxamide], the “IKZF3 deg Amax %” value is listed as 96.7% and the DC50 is greater than 10 µM.

Take `COc1ccc(C(=O)N2CCC(CN3CCN(Cc4ccc(-c5cc6c(-c7cc(F)cc(NC(=O)N8C[C@H](CC(C)C)[C@@H](O)C8)c7C)ncnc6[nH]5)cc4)CC3)CC2)cc1N1CCC(=O)NC1=O` [Compound 12, (3R,4S)—N-(3-(6-(4-((4-((1-(3-(2,4-Dioxotetrahydropyrimidin-1(2H)-yl)-4-methoxybenzoyl)piperidin-4-yl)methyl)piperazin-1-yl)methyl)phenyl)-7H-pyrrolo[2,3-d]pyrimidin-4-yl)-5-fluoro-2-methylphenyl)-3-hydroxy-4-isobutylpyrrolidine-1-carboxamide]: the “IKZF3 deg Amax %” value amounted to 104.0% and the DC50 was greater than 1.1 µM.

Regarding `COc1ccc(C(=O)N2CCC(OC3CCN(CCc4ccc(-c5cc6c(-c7cc(F)cc(NC(=O)N8C[C@H](CC(C)C)[C@@H](O)C8)c7C)ncnc6[nH]5)cc4)CC3)CC2)cc1N1CCC(=O)NC1=O` [Compound 13, (3R,4S)—N-(3-(6-(4-(2-(4-((1-(3-(2,4-Dioxotetrahydropyrimidin-1(2H)-yl)-4-methoxybenzoyl)piperidin-4-yl)oxy)piperidin-1-yl)ethyl)phenyl)-7H-pyrrolo[2,3-d]pyrimidin-4-yl)-5-fluoro-2-methylphenyl)-3-hydroxy-4-isobutylpyrrolidine-1-carboxamide], the “IKZF3 deg Amax %” value stood at 99.7% and the DC50 is greater than 3.3 µM.

On to `COc1ccc(C(=O)N2CCC3(CCN(CCc4ccc(-c5cc6c(-c7cc(F)cc(NC(=O)N8C[C@H](CC(C)C)[C@@H](O)C8)c7C)ncnc6[nH]5)cc4)CC3)CC2)cc1N1CCC(=O)NC1=O` [Compound 15, (3R,4S)—N-(3-(6-(4-(2-(9-(3-(2,4-Dioxotetrahydropyrimidin-1(2H)-yl)-4-methoxybenzoyl)-3,9-diazaspiro[5.5]undecan-3-yl)ethyl)phenyl)-7H-pyrrolo[2,3-d]pyrimidin-4-yl)-5-fluoro-2-methylphenyl)-3-hydroxy-4-isobutylpyrrolidine-1-carboxamide], for which the “IKZF3 deg Amax %” value was 100.2% and the DC50 is greater than 5.5 µM.

With `COc1ccc(C(=O)N2CCC3(CCN(CCc4ccc(-c5cc6c(-c7cc(F)cc(NC(=O)N8C[C@@H](CC(C)C)[C@H](O)C8)c7C)ncnc6[nH]5)cc4)CC3)CC2)cc1N1CCC(=O)NC1=O` [Compound 19, (3S,4R)—N-(3-(6-(4-(2-(9-(3-(2,4-dioxotetrahydropyrimidin-1(2H)-yl)-4-methoxybenzoyl)-3,9-diazaspiro[5.5]undecan-3-yl)ethyl)phenyl)-7H-pyrrolo[2,3-d]pyrimidin-4-yl)-5-fluoro-2-methylphenyl)-3-hydroxy-4-isobutylpyrrolidine-1-carboxamide], the “IKZF3 deg Amax %” value was determined as 102.4% and the DC50 is greater than 1.1 µM.

Consider `COc1ccc(C(=O)N2CCC(CCN3CCC(OCc4ccc(-c5cc6c(-c7cc(F)cc(NC(=O)N8C[C@H](CC(C)C)[C@@H](O)C8)c7C)ncnc6[nH]5)cc4)CC3)CC2)cc1N1CCC(=O)NC1=O` [Compound 22, (3R,4S)—N-(3-(6-(4-(((1-(2-(1-(3-(2,4-Dioxotetrahydropyrimidin-1 (2H)-yl)-4-methoxybenzoyl)piperidin-4-yl)ethyl)piperidin-4-yl)oxy)methyl)phenyl)-7H-pyrrolo[2,3-d]pyrimidin-4-yl)-5-fluoro-2-methylphenyl)-3-hydroxy-4-isobutylpyrrolidine-1-carboxamide], for which the “IKZF3 deg Amax %” value was 100.2% and the DC50 was greater than 1.1 µM.

The values above are taken from patent US11541056B2, “3-hydroxy-N-(3-(7H-pyrrolo[2,3-d]pyrimidin-4-yl)phenyl)pyrrolidine-1-carboxamide derivatives” (NOVARTIS AG, priority 2018, dated 2023).
